Data from ChEMBL document CHEMBL1201862, “PubChem BioAssay data set” (2004).
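Briefly, cells in 96-well plates were exposed to five compound concentrations for 48 h, and endpoints were estimated by linear interpolation. GI50: concentration for 50% inhibition of growth.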 Calls of active or inactive are those of the source. Cut-off read from the data, not from the text of the source: active = GI50 up to about 1.1 µM and inactive = higher.

Tests used:
Assay in all cases: NCI-60 cell line screen, 48 h
[1] = test system: SNB-75
[2] = test system: TK-10
[3] = test system: LOX IMVI
[4] = test system: HOP-92
[5] = test system: EKVX
[6] = test system: HOP-62
[7] = test system: SK-MEL-28
[8] = test system: OVCAR-5
[9] = test system: MDA-N
[10] = test system: MDA-MB-435
[11] = test system: OVCAR-3
[12] = test system: NCI-H226
[13] = test system: U-251
[14] = test system: NCI-H460
[15] = test system: ACHN
[16] = test system: OVCAR-8
[17] = test system: PC-3
[18] = test system: A549
[19] = test system: Malme-3M
[20] = test system: HT-29

Measured: GI50

CC1=C(O)C(=O)c2ccccc2C1=O
inactive: [1] 44.3 µM | [2] 24.3 µM | [3] 70.6 µM | [4] > 100 µM | [5] > 100 µM | [6] > 100 µM | [7] > 100 µM | [8] > 100 µM | [9] 46.7 µM | [10] 52.6 µM | [11] 43.4 µM | [12] > 100 µM | [13] 34 µM | [14] 43.6 µM | [15] 58.7 µM | [16] > 100 µM | [17] 82.6 µM | [18] > 100 µM | [19] 9.02 µM | [20] 56.1 µM

COc1cc(C[S+]([O-])c2ccc(O)cc2)cc(OC)c1OC (stereo not drawn)
inactive: [1] > 100 µM | [2] > 100 µM | [3] > 100 µM | [4] > 100 µM | [5] > 100 µM | [6] > 100 µM | [7] > 100 µM | [8] > 100 µM | [9] > 100 µM | [10] > 100 µM | [11] > 100 µM | [12] > 100 µM | [13] > 100 µM | [14] > 100 µM | [15] > 100 µM | [16] > 100 µM | [17] > 100 µM | [18] > 100 µM | [19] > 100 µM | [20] > 100 µM

O=[N+]([O-])c1ccc(N/N=C/CC(O)(C(F)(F)F)C(F)(F)F)c([N+](=O)[O-])c1
inactive: [1] > 10 µM | [2] 5.79 µM | [3] 5.55 µM | [4] 2.17 µM | [5] 5.35 µM | [6] 4.17 µM | [7] 7.78 µM | [9] 5.25 µM | [10] 4.13 µM | [11] 2.8 µM | [12] 3.72 µM | [13] 3.48 µM | [14] 2.97 µM | [15] 3.52 µM | [16] 4.23 µM | [17] 3.24 µM | [18] 4.69 µM | [19] 4.97 µM | [20] 4.38 µM

CN(c1cn(C2CC[C@@H](CO)O2)c(=O)[nH]c1=O)C1CCCCC1 (stereo partly drawn)
inactive: [1] 21.9 µM | [2] > 100 µM | [3] > 100 µM | [4] > 100 µM | [6] > 100 µM | [7] > 100 µM | [8] > 100 µM | [9] > 100 µM | [10] > 100 µM | [11] > 100 µM | [12] > 100 µM | [13] > 100 µM | [14] > 100 µM | [15] > 100 µM | [16] > 100 µM | [17] > 100 µM | [18] > 100 µM | [19] > 100 µM | [20] > 100 µM
